Measurements: article PMC7426420, “Cupid, a cell permeable peptide derived from amoeba, capable of delivering GFP into a diverse range of species” (Scientific Reports, 2020)

Test system: Dictyostelium discoideum AX2 strain cells
Experiment: Cell penetration into Dictyostelium amoeba cells, fluorescence microscopy of fixed cells
Type: cell-based
Settings: 10 µM, 60 min in buffer, washed 3 times, fixed with Fluorsave, green fluorescent filter; GFP proteins denatured, non-fluorescent when added
Description: Dictyostelium discoideum AX2 strain cells were grown on Klebsiella aerogenes plates. For experimentation, cells at the growth zone were collected and washed 5 times with 10 mM potassium phosphate buffer, pH 7.2 and seeded in slide chambers at a density of 10^5 cells/mL. Cells were incubated with FITC-labelled Cupid, Cupid-GFP or H-GFP at the doses indicated for 60 min, washed 3 times in buffer and fixed in situ using Fluorsave (Calbiochem, UK) under a coverslip. Cell microscopy was performed on an upright fluorescence microscope (Olympus BX61) with the green fluorescent filter set, coupled with a digital camera.

**Q.** For “fluorescein-labelled BSA: fluorescein-labelled BSA control (data not shown)”, which “cells become fluorescent (cell-penetrating capability)” value is on record?
**A.** did not

**Q.** How did the “cells become fluorescent (cell-penetrating capability)” value turn out when RRVQIWFQNKRAKVKR [F-Cupid] was run?
**A.** caused the cells to become fluorescent
